According to patent publication US20090270435A1 (priority 2006, published 2009):
Structures can show the parent of a compound that is named as a salt.

Molecular target: T1, ACC1 from rat liver (Rattus norvegicus, UniProt P11497)
T1 construct: The livers (for ACC1 preparation) or skeletal muscle tissue (for ACC2 preparation) are removed; from tissue; host or cells: liver of male CD rats (fasted, then fed a high sucrose diet)
Test: Direct inhibition of ACC1 activity (14C-bicarbonate incorporation)
Assay type: biochemical
Conditions: ACC1 from rat liver
Outline: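 ACC1 partially purified from livers of fasted/sucrose-refed male rats by PEG and ammonium sulfate fractionation, then preincubated 30 min at 37°C with 10 mM citrate and 1.0 mM MgCl2. Reaction ran 7 min at 37°C, stopped with HCl; acid-stable radioactivity counted by scintillation; HCl-first tubes served as blanks.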

Cc1cc2c(cc1C)C(=O)CC1(CCN(C(=O)c3ccc4nccnc4c3)CC1)O2 [Ex. L45, 6,7-dimethyl-1′-(quinoxalin-6-ylcarbonyl)spiro[chromene-2,4′-piperidin]-4(3H)-one] and Cc1cc2c(cc1Cl)C(=O)CC1(CCN(C(=O)c3ccc4ocnc4c3)CC1)O2 [Ex. L46, 1′-(1,3-benzoxazol-5-ylcarbonyl)-6-chloro-7-methylspiro[chromene-2,4′-piperidin]-4(3H)-one] cannot be ordered by IC50: < 3000 nM for the first, 369 nM for the second.

O=C(O)c1ccc2c(c1)C(=O)CC1(CCN(C(=O)c3cccc(-c4cc[nH]n4)c3)CC1)O2 [Ex. N1, 4-oxo-1′-[3-(1H-pyrazol-3-yl)benzoyl]-3,4-dihydrospiro[chromene-2,4′-piperidine]-6-carboxylic acid trifluoroacetic acid salt] gave an IC50 of 891 nM.

Same assay, conditions: Table of Examples M1-M36

Going from COc1cc(C)cc2c1C(=O)CC1(CCN(C(=O)c3cccc(-c4cc[nH]n4)c3)CC1)O2 [Ex. M1, 5-methoxy-7-methyl-1′-[3-(1H-pyrazol-3-yl)benzoyl]spiro[chromene-2,4′-piperidin]-4(3H)-one] to COc1cccc2c1C(=O)CC1(CCN(C(=O)c3cccc(-c4cc[nH]n4)c3)CC1)O2 [Ex. M27, 5-methoxy-1′-[3-(1H-pyrazol-3-yl)benzoyl]spiro[chromene-2,4′-piperidin]-4(3H)-one], the IC50 rises from 37.5 nM to 545 nM (15-fold). The first is the more potent here.

Going from Cc1cc2c(cc1C)C(=O)CC1(CCN(C(=O)c3cccc(-c4cc[nH]n4)c3)CC1)O2 [Ex. M2, 6,7-dimethyl-1′-[3-(1H-pyrazol-3-yl)benzoyl]spiro[chromene-2,4′-piperidin]-4(3H)-one] to Cc1cc2c(cc1Cl)OC1(CCN(C(=O)c3cccc(-c4cc[nH]n4)c3)CC1)CC2=O [Ex. M7, 7-chloro-6-methyl-1′-[3-(1H-pyrazol-3-yl)benzoyl]spiro[chromene-2,4′-piperidin]-4(3H)-one], the IC50 rises from 73.6 nM to 140 nM (1.9-fold).

Going from CNC(=O)c1ccc2c(c1)C(=O)CC1(CCN(C(=O)c3cccc(-c4cc[nH]n4)c3)CC1)O2 [Ex. M4, N-methyl-4-oxo-1′-[3-(1H-pyrazol-3-yl)benzoyl]-3,4-dihydrospiro[chromene-2,4′-piperidine]-6-carboxamide] to COC(=O)c1ccc2c(c1)C(=O)CC1(CCN(C(=O)c3cccc(-c4cc[nH]n4)c3)CC1)O2 [Ex. M11, methyl 4-oxo-1′-[3-(1H-pyrazol-3-yl)benzoyl]-3,4-dihydrospiro[chromene-2,4′-piperidine]-6-carboxylate], the IC50 rises from 110 nM to 202 nM (1.8-fold). The first is the more potent here.

Going from NC(=O)c1ccc2c(c1)C(=O)CC1(CCN(C(=O)c3cccc(-c4cc[nH]n4)c3)CC1)O2 [Ex. M5, 4-oxo-1′-[3-(1H-pyrazol-3-yl)benzoyl]-3,4-dihydrospiro[chromene-2,4′-piperidine]-6-carboxamide] to CN(C)C(=O)c1ccc2c(c1)C(=O)CC1(CCN(C(=O)c3cccc(-c4cc[nH]n4)c3)CC1)O2 [Ex. M29, N,N-dimethyl-4-oxo-1′-[3-(1H-pyrazol-3-yl)benzoyl]-3,4-dihydrospiro[chromene-2,4′-piperidine]-6-carboxamide], the IC50 rises from 118 nM to 574 nM (4.9-fold). The first is the more potent here.

Going from COc1ccc2c(c1)C(=O)CC1(CCN(C(=O)c3cccc(-c4cc[nH]n4)c3)CC1)O2 [Ex. M6, 6-methoxy-1′-[3-(1H-pyrazol-3-yl)benzoyl]spiro[chromene-2,4′-piperidin]-4(3H)-one] to COc1ccc2c(c1)OC1(CCN(C(=O)c3cccc(-c4cc[nH]n4)c3)CC1)CC2=O [Ex. M25, 7-methoxy-1′-[3-(1H-pyrazol-3-yl)benzoyl]spiro[chromene-2,4′-piperidin]-4(3H)-one], the IC50 rises from 129 nM to 481 nM (3.7-fold).

First: O=C1CC2(CCN(C(=O)c3cccc(-c4cc[nH]n4)c3)CC2)Oc2cc(Cl)c(Cl)cc21 [Ex. M8, 6,7-dichloro-1′-[3-(1H-pyrazol-3-yl)benzoyl]spiro[chromene-2,4′-piperidin]-4(3H)-one]
Second: O=C1CC2(CCN(C(=O)c3cccc(-c4cc[nH]n4)c3)CC2)Oc2cc(F)c(Cl)cc21 [Ex. M24, 6-chloro-7-fluoro-1′-[3-(1H-pyrazol-3-yl)benzoyl]spiro[chromene-2,4′-piperidin]-4(3H)-one]
The IC50 of the first is 2.7-fold lower: 178 nM for the first, 478 nM for the second. The first is the more potent here.

Compared with O=C1CC2(CCN(C(=O)c3cccc(-c4cc[nH]n4)c3)CC2)Oc2ccc(C(=O)N3CCCC3)cc21 [Ex. M9, 1′-[3-(1H-pyrazol-3-yl)benzoyl]-6-(pyrrolidin-1-ylcarbonyl)spiro[chromene-2,4′-piperidin]-4(3H)-one], O=C1CC2(CCN(C(=O)c3cccc(-c4cc[nH]n4)c3)CC2)Oc2ccc(C(=O)N3CCOCC3)cc21 [Ex. M32, 6-(morpholin-4-ylcarbonyl)-1′-[3-(1H-pyrazol-3-yl)benzoyl]spiro[chromene-2,4′-piperidin]-4(3H)-one] is 4.1-fold higher in IC50: 179 nM for the first, 737 nM for the second.

Compared with Cc1cc2c(cc1Br)C(=O)CC1(CCN(C(=O)c3cccc(-c4cc[nH]n4)c3)CC1)O2 [Ex. M10, 6-bromo-7-methyl-1′-[3-(1H-pyrazol-3-yl)benzoyl]spiro[chromene-2,4′-piperidin]-4(3H)-one], O=C1CC2(CCN(C(=O)c3cccc(-c4cc[nH]n4)c3)CC2)Oc2cc(Cl)c(F)cc21 [Ex. M36, 7-chloro-6-fluoro-1-[3-(1H-pyrazol-3-yl)benzoyl]spiro[chromene-2,4′-piperidin]-4(3H)-one] is 9.9-fold higher in IC50: 201 nM for the first, 1990 nM for the second. The first is the more potent here.

First: Cc1ccc2c(c1)OC1(CCN(C(=O)c3cccc(-c4cc[nH]n4)c3)CC1)CC2=O [Ex. M12, 7-methyl-1′-[3-(1H-pyrazol-3-yl)benzoyl]spiro[chromene-2,4′-piperidin]-4(3H)-one]
Second: Cc1ccc2c(c1)C(=O)CC1(CCN(C(=O)c3cccc(-c4cc[nH]n4)c3)CC1)O2 [Ex. M23, 6-methyl-1′-[3-(1H-pyrazol-3-yl)benzoyl]spiro[chromene-2,4′-piperidin]-4(3H)-one]
The IC50 of the first is 2.3-fold lower: 205 nM for the first, 475 nM for the second. The first is the more potent here.

Compared with O=C1CC2(CCN(C(=O)c3cccc(-c4cc[nH]n4)c3)CC2)Oc2ccc(OC(F)(F)F)cc21 [Ex. M13, 1′-[3-(1H-pyrazol-3-yl)benzoyl]-6-(trifluoromethoxy)spiro[chromene-2,4′-piperidin]-4(3H)-one], O=C1CC2(CCN(C(=O)c3cccc(-c4cc[nH]n4)c3)CC2)Oc2ccc(C(F)(F)F)cc21 [Ex. M19, 1′-[3-(1H-pyrazol-3-yl)benzoyl]-6-(trifluoromethyl)spiro[chromene-2,4′-piperidin]-4(3H)-one] is 1.9-fold higher in IC50: 220 nM for the first, 418 nM for the second. The first is the more potent here.

First: COc1ccc2c(c1F)C(=O)CC1(CCN(C(=O)c3cccc(-c4cc[nH]n4)c3)CC1)O2 [Ex. M14, 5-fluoro-6-methoxy-1′-[3-(1H-pyrazol-3-yl)benzoyl]spiro[chromene-2,4′-piperidin]-4(3H)-one]
Second: COc1c(Cl)ccc2c1C(=O)CC1(CCN(C(=O)c3cccc(-c4cc[nH]n4)c3)CC1)O2 [Ex. M18, 6-chloro-5-methoxy-1′-[3-(1H-pyrazol-3-yl)benzoyl]spiro[chromene-2,4′-piperidin]-4(3H)-one]
The IC50 of the first is 1.7-fold lower: 223 nM for the first, 374 nM for the second.

Compared with O=C1CC2(CCN(C(=O)c3cccc(-c4cc[nH]n4)c3)CC2)Oc2cc(Cl)ccc21 [Ex. M15, 7-chloro-1′-[3-(1H-pyrazol-3-yl)benzoyl]spiro[chromene-2,4′-piperidin]-4(3H)-one], O=C1CC2(CCN(C(=O)c3cccc(-c4cc[nH]n4)c3)CC2)Oc2ccc(Cl)cc21 [Ex. M30, 6-Chloro-1′-[3-(1H-pyrazol-3-yl)benzoyl]spiro[chromene-2,4′-piperidin]-4(3H)-one] is 2.6-fold higher in IC50: 233 nM for the first, 613 nM for the second.

First: O=C1CC2(CCN(C(=O)c3cccc(-c4cc[nH]n4)c3)CC2)Oc2cc(Cl)cc(Cl)c21 [Ex. M16, 5,7-dichloro-1′-[3-(1H-pyrazol-3-yl)benzoyl]spiro[chromene-2,4′-piperidin]-4(3H)-one]
Second: O=C1CC2(CCN(C(=O)c3cccc(-c4cc[nH]n4)c3)CC2)Oc2c(Cl)cc(Cl)cc21 [Ex. M35, 6,8-dichloro-1′-[3-(1H-pyrazol-3-yl)benzoyl]spiro[chromene-2,4′-piperidin]-4(3H)-one]
The IC50 of the first is 4.4-fold lower: 319 nM for the first, 1400 nM for the second.

Compared with CC(C)NC(=O)c1ccc2c(c1)C(=O)CC1(CCN(C(=O)c3cccc(-c4cc[nH]n4)c3)CC1)O2 [Ex. M17, N-isopropyl-4-oxo-1′-[3-(1H-pyrazol-3-yl)benzoyl]3,4-dihydrospiro[chromene-2,4′-piperidine]-6-carboxamide], O=C1CC2(CCN(C(=O)c3cccc(-c4cc[nH]n4)c3)CC2)Oc2cc(F)ccc21 [Ex. M34, 7-Fluoro-1′-[3-(1H-pyrazol-3-yl)benzoyl]spiro[chromene-2,4′-piperidin]-4(3H)-one] is 2.3-fold higher in IC50: 350 nM for the first, 817 nM for the second. The first is the more potent here.

Going from COc1cc2c(c(OC)c1OC)C(=O)CC1(CCN(C(=O)c3cccc(-c4cc[nH]n4)c3)CC1)O2 [Ex. M21, 5,6,7-trimethoxy-1′-[3-(1H-pyrazol-3-yl)benzoyl]spiro[chromene-2,4′-piperidin]-4(3H)-one] to COc1cc2c(cc1OC)C(=O)CC1(CCN(C(=O)c3cccc(-c4cc[nH]n4)c3)CC1)O2 [Ex. M31, 6,7-Dimethoxy-1′-[3-(1H-pyrazol-3-yl)benzoyl]spiro[chromene-2,4′-piperidin]-4(3H)-one], the IC50 rises from 439 nM to 697 nM (1.6-fold). The first is the more potent here.

Same assay, conditions: Table of Examples O1-O4

Going from O=C1CC2(CCN(C(=O)c3cccc(-c4ccn[nH]4)c3)CC2)Oc2ccccc21 [Ex. O1, 1′-[3-(1H-pyrazol-5-yl)benzoyl]spiro[chromene-2,4′-piperidin]-4(3H)-one] to COc1cc(Cl)c2c(c1)OC1(CCN(C(=O)c3cccc(-c4ccn[nH]4)c3)CC1)CC2=O [Ex. O2, 5-chloro-7-methoxy-1′-[3-(1H-pyrazol-5-yl)benzoyl]spiro[chromene-2,4′-piperidin]-4(3H)-one], the IC50 falls from 916 nM to 55 nM (17-fold). The second is the more potent here.

COc1cc(Cl)cc2c1C(=O)CC1(CCN(C(=O)c3cccc(-c4ccn[nH]4)c3)CC1)O2 [Ex. O3, 7-chloro-5-methoxy-1′-[3-(1H-pyrazol-5-yl)benzoyl]spiro[chromene-2,4′-piperidin]-4(3H)-one] and COc1cc(C)c2c(c1)OC1(CCN(C(=O)c3cccc(-c4ccn[nH]4)c3)CC1)CC2=O [Ex. O4, 7-methoxy-5-methyl-1′-[3-(1H-pyrazol-5-yl)benzoyl]spiro[chromene-2,4′-piperidin]-4(3H)-one] are within 1.5-fold of each other in IC50: 455 nM for the first, 468 nM for the second.
